Paper PMC2409929 (British Journal of Cancer, 2004)
Marks after values point to notes of the source that are not given here.

System: patients with metastatic colorectal cancer
Experiment: Toxicity graded by NCI-CTC in the phase II trial
Type: in vivo, human
Conditions: for Anaemia, Grade 3–4, %Patients / Anaemia, all grades, %Patients / Leukocytopenia, Grade 3–4, %Patients / Leukocytopenia, all grades, %Patients / Neutropenia, Grade 3–4, %Patients / Neutropenia, all grades, %Patients / Thrombocytopenia, Grade 3–4, %Patients / Thrombocytopenia, all grades, %Patients: worst grade during study
Description: Haematology was checked weekly.
Otherwise, they were analysed by nonparametric methods. […] All tests for significance were two-tailed.

[1] = arm A (350 mg m^−2 90-min i.v. q3 weeks)
[2] = arm A (350 mg m^−2 90-min i.v. q3 weeks), possibly or probably related
[3] = arm B (125 mg m^−2 90-min i.v. weekly × 4 q6 weeks)
[4] = arm B (125 mg m^−2 90-min i.v. weekly × 4 q6 weeks), possibly or probably related
[5] = arm C (250 mg m^−2 90-min i.v. q2 weeks)
[6] = arm C (250 mg m^−2 90-min i.v. q2 weeks), possibly or probably related
[7] = arm D (10 mg m^−2 day^−1 14-day continuous infusion q3 weeks)
[8] = arm D (10 mg m^−2 day^−1 14-day continuous infusion q3 weeks), possibly or probably related

Structure (SMILES): CCc1c2c(nc3ccc(OC(=O)N4CCC(N5CCCCC5)CC4)cc13)-c1cc3c(c(=O)n1C2)COC(=O)[C@]3(O)CC [irinotecan]
- Anaemia, Grade 3–4, %Cycles [1]: 1%
- Anaemia, all grades, %Cycles [1]: 92%
- Episodes of grade 3–4 neutropenia with duration <8 days [1]: 53%
- Febrile neutropenia, %Patients [1]: 75%
- Leukocytopenia, Grade 3–4, %Cycles [1]: 15%
- Leukocytopenia, all grades, %Cycles [1]: 70%
- Neutropenia, Grade 3–4, %Cycles [1]: 21%
- Neutropenia, all grades, %Cycles [1]: 65%
- Neutropenic infection, %Cycles [1]: 1%
- Neutropenic infection, %Patients [1]: 2%
- Number of patients with at least one grade 3–4 adverse event possibly or probably related to irinotecan [1]: 12
- Patients with at least one grade 3–4 adverse event possibly or probably related to irinotecan, % [1]: 29%
- Thrombocytopenia, Grade 3–4, %Cycles [1]: 0/0%
- Thrombocytopenia, all grades, %Cycles [1]: 14%
- Alopecia, all grades, % of patients [2]: 71 ^b %
- Anorexia, all grades, % of patients [2]: 12%
- Cholinergic syndrome, all grades, % of patients [2]: 68 ^a %
- Diarrhoea, Grade 3–4, % of patients [2]: 10%
- Diarrhoea, all grades, % of patients [2]: 88%
- Fatigue, Grade 3–4, % of patients [2]: 7%
- Fatigue, all grades, % of patients [2]: 51%
- Fever in absence of infection, Grade 3–4, % of patients [2]: 2%
- Fever in absence of infection, all grades, % of patients [2]: 12%
- Gastrointestinal pain, Grade 3–4, % of patients [2]: 2%
- Gastrointestinal pain, all grades, % of patients [2]: 17%
- Infection, Grade 3–4, % of patients [2]: 2%
- Infection, all grades, % of patients [2]: 7%
- Nausea, Grade 3–4, % of patients [2]: 15%
- Nausea, all grades, % of patients [2]: 73%
- Vomiting, Grade 3–4, % of patients [2]: 10%
- Vomiting, all grades, % of patients [2]: 54%
- Median time to recovery from grade 3–4 neutropenia (arm A (350 mg m^−2 90-min i.v. q3 weeks), range 6–14): 7 days
- Median number of days to grade 3–4 nadir (neutropenia) (arm A (350 mg m^−2 90-min i.v. q3 weeks), range 6–17): 9 days
- Anaemia, Grade 3–4, %Patients [1]: 2%
- Anaemia, all grades, %Patients [1]: 98%
- Leukocytopenia, Grade 3–4, %Patients [1]: 20%
- Leukocytopenia, all grades, %Patients [1]: 73%
- Neutropenia, Grade 3–4, %Patients [1]: 34%
- Neutropenia, all grades, %Patients [1]: 73%
- Thrombocytopenia, Grade 3–4, %Patients [1]: 0/0%
- Thrombocytopenia, all grades, %Patients [1]: 24%
- Anaemia, Grade 3–4, %Cycles [3]: 1%
- Anaemia, all grades, %Cycles [3]: 87%
- Episodes of grade 3–4 neutropenia with duration <8 days [3]: 77%
- Febrile neutropenia, %Cycles [3]: 2%
- Febrile neutropenia, %Patients [3]: 5%
- Leukocytopenia, Grade 3–4, %Cycles [3]: 6%
- Leukocytopenia, all grades, %Cycles [3]: 53%
- Neutropenia, Grade 3–4, %Cycles [3]: 12%
- Neutropenia, all grades, %Cycles [3]: 50%
- Number of patients with at least one grade 3–4 adverse event possibly or probably related to irinotecan [3]: 11
- Patients with at least one grade 3–4 adverse event possibly or probably related to irinotecan, % [3]: 30%
- Thrombocytopenia, Grade 3–4, %Cycles [3]: 0/0%
- Thrombocytopenia, all grades, %Cycles [3]: 6%
- Alopecia, all grades, % of patients [4]: 43%
- Anorexia, all grades, % of patients [4]: 14%
- Cholinergic syndrome, all grades, % of patients [4]: 41 ^a %
- Diarrhoea, Grade 3–4, % of patients [4]: 24%
- Diarrhoea, all grades, % of patients [4]: 76%
- Fatigue, Grade 3–4, % of patients [4]: 3%
- Fatigue, all grades, % of patients [4]: 38%
- Fever in absence of infection, all grades, % of patients [4]: 19%
- Gastrointestinal pain, Grade 3–4, % of patients [4]: 3%
- Gastrointestinal pain, all grades, % of patients [4]: 16%
- Infection, Grade 3–4, % of patients [4]: 5%
- Infection, all grades, % of patients [4]: 11%
- Nausea, Grade 3–4, % of patients [4]: 5%
- Nausea, all grades, % of patients [4]: 73%
- Vomiting, Grade 3–4, % of patients [4]: 3%
- Vomiting, all grades, % of patients [4]: 57%
- Median time to recovery from grade 3–4 neutropenia (arm B (125 mg m^−2 90-min i.v. weekly × 4 q6 weeks), range 2–15): 7 days
- Median number of days to grade 3–4 nadir (neutropenia) (arm B (125 mg m^−2 90-min i.v. weekly × 4 q6 weeks), range 4–13): 7 days
- Anaemia, Grade 3–4, %Patients [3]: 3%
- Anaemia, all grades, %Patients [3]: 92%
- Leukocytopenia, Grade 3–4, %Patients [3]: 14%
- Leukocytopenia, all grades, %Patients [3]: 68%
- Neutropenia, Grade 3–4, %Patients [3]: 25%
- Neutropenia, all grades, %Patients [3]: 61%
- Thrombocytopenia, Grade 3–4, %Patients [3]: 0/0%
- Thrombocytopenia, all grades, %Patients [3]: 11%
- Anaemia, Grade 3–4, %Cycles [5]: 4/4%
- Anaemia, all grades, %Cycles [5]: 90%
- Discontinuation due to toxicity, main reason diarrhoea [5]: 7%
- Episodes of grade 3–4 neutropenia with duration <8 days [5]: 84%
- Febrile neutropenia, %Cycles [5]: 1%
- Febrile neutropenia, %Patients [5]: 7%
- Leukocytopenia, Grade 3–4, %Cycles [5]: 6%
- Leukocytopenia, all grades, %Cycles [5]: 56%
- Neutropenia, Grade 3–4, %Cycles [5]: 20%
- Neutropenia, all grades, %Cycles [5]: 57%
- Neutropenic infection, %Cycles [5]: 1%
- Neutropenic infection, %Patients [5]: 2%
- Number of patients with at least one grade 3–4 adverse event possibly or probably related to irinotecan [5]: 14
- Patients who discontinued treatment due to toxicity (from the study drug) [5]: 11%
- Patients with at least one grade 3–4 adverse event possibly or probably related to irinotecan, % [5]: 30%
- Thrombocytopenia, Grade 3–4, %Cycles [5]: 0/0%
- Thrombocytopenia, all grades, %Cycles [5]: 6%
- Alopecia, all grades, % of patients [6]: 67 ^b %
- Anorexia, all grades, % of patients [6]: 17%
- Cholinergic syndrome, Grade 3–4, % of patients [6]: 2%
- Cholinergic syndrome, all grades, % of patients [6]: 61 ^a %
- Diarrhoea, Grade 3–4, % of patients [6]: 13%
- Diarrhoea, all grades, % of patients [6]: 74%
- Fatigue, Grade 3–4, % of patients [6]: 4%
- Fatigue, all grades, % of patients [6]: 61%
- Fever in absence of infection, Grade 3–4, % of patients [6]: 4%
- Fever in absence of infection, all grades, % of patients [6]: 15%
- Gastrointestinal pain, Grade 3–4, % of patients [6]: 2%
- Gastrointestinal pain, all grades, % of patients [6]: 17%
- Infection, all grades, % of patients [6]: 11%
- Nausea, Grade 3–4, % of patients [6]: 9%
- Nausea, all grades, % of patients [6]: 65%
- Vomiting, Grade 3–4, % of patients [6]: 9%
- Vomiting, all grades, % of patients [6]: 50%
- Median time to recovery from grade 3–4 neutropenia (arm C (250 mg m^−2 90-min i.v. q2 weeks), range 1–12): 7 days
- Median number of days to grade 3–4 nadir (neutropenia) (arm C (250 mg m^−2 90-min i.v. q2 weeks), range 6–17): 7 days
- Anaemia, Grade 3–4, %Patients [5]: 4/4%
- Anaemia, all grades, %Patients [5]: 91%
- Leukocytopenia, Grade 3–4, %Patients [5]: 15%
- Leukocytopenia, all grades, %Patients [5]: 70%
- Neutropenia, Grade 3–4, %Patients [5]: 28%
- Neutropenia, all grades, %Patients [5]: 65%
- Thrombocytopenia, Grade 3–4, %Patients [5]: 0/0%
- Thrombocytopenia, all grades, %Patients [5]: 15%
- Anaemia, Grade 3–4, %Cycles [7]: 0/0%
- Anaemia, all grades, %Cycles [7]: 83%
- Discontinuation due to toxicity, main reason diarrhoea [7]: 14%
- Discontinuation due to toxicity, main reason vomiting [7]: 14%
- Episodes of grade 3–4 neutropenia with duration <8 days [7]: 25%
- Leukocytopenia, Grade 3–4, %Cycles [7]: 3%
- Leukocytopenia, all grades, %Cycles [7]: 24%
- Neutropenia, Grade 3–4, %Cycles [7]: 5%
- Neutropenia, all grades, %Cycles [7]: 15%
- Neutropenic infection, %Cycles [7]: 1%
- Neutropenic infection, %Patients [7]: 2%
- Number of patients with at least one grade 3–4 adverse event possibly or probably related to irinotecan [7]: 22
- Patients who discontinued treatment due to toxicity (from the study drug) [7]: 21%
- Patients with at least one grade 3–4 adverse event possibly or probably related to irinotecan, % [7]: 50%
- Thrombocytopenia, Grade 3–4, %Cycles [7]: 3%
- Thrombocytopenia, all grades, %Cycles [7]: 8%
- Alopecia, all grades, % of patients [8]: 34 ^b %
- Anorexia, Grade 3–4, % of patients [8]: 5%
- Anorexia, all grades, % of patients [8]: 34%
- Cholinergic syndrome, all grades, % of patients [8]: 7 ^a %
- Diarrhoea, Grade 3–4, % of patients [8]: 25%
- Diarrhoea, all grades, % of patients [8]: 77%
- Fatigue, Grade 3–4, % of patients [8]: 7%
- Fatigue, all grades, % of patients [8]: 52%
- Fever in absence of infection, all grades, % of patients [8]: 16%
- Gastrointestinal pain, Grade 3–4, % of patients [8]: 2%
- Gastrointestinal pain, all grades, % of patients [8]: 23%
- Infection, Grade 3–4, % of patients [8]: 7%
- Infection, all grades, % of patients [8]: 11%
- Nausea, Grade 3–4, % of patients [8]: 23%
- Nausea, all grades, % of patients [8]: 80%
- Vomiting, Grade 3–4, % of patients [8]: 16%
- Vomiting, all grades, % of patients [8]: 59%
- Median time to recovery from grade 3–4 neutropenia (arm D (10 mg m^−2 day^−1 14-day continuous infusion q3 weeks), range 4–4): 4 days
- Median number of days to grade 3–4 nadir (neutropenia) (arm D (10 mg m^−2 day^−1 14-day continuous infusion q3 weeks), range 14–19): 16 days
- Anaemia, Grade 3–4, %Patients [7]: 0/0%
- Anaemia, all grades, %Patients [7]: 91%
- Leukocytopenia, Grade 3–4, %Patients [7]: 5%
- Leukocytopenia, all grades, %Patients [7]: 30%
- Neutropenia, Grade 3–4, %Patients [7]: 9%
- Neutropenia, all grades, %Patients [7]: 23%
- Thrombocytopenia, Grade 3–4, %Patients [7]: 5%
- Thrombocytopenia, all grades, %Patients [7]: 9%
